Experimental data: patent publication US20120149647A1, “Methods for Assessing the Efficacy of Gemcitabine or Ara-C Treatment of Cancer Using Human Antigen R Levels” (priority 2009, published 2012)
“Also recorded” adds a separate entry of the source.

What was measured:
[1] = tested on: pancreatic cancer cell lines MiaPaca2, PL-5, and Hs766t; test: Drug sensitivity assay (PicoGreen cell survival), HuR-overexpressing vs control lines; format: cell-based; settings: PicoGreen cell survival after 5-7 days of drug, HuR vs empty vector/control cells
Description: HuR cDNA sequence was cloned into the pcDNA 3.1. Zeo vector (Invitrogen) for stable transfection of pancreatic cancer cell lines MiaPaca2, PL-5, and Hs766t. Pooled cells remained under selection media containing Zeocin (Invitrogen) for several months after transfection. Mia.HuR, PL5.HuR, and Hs766t. HuR denote link overexpressing lines; Mia.EV, PL5.EV, and Hs766t denote empty vector or control lines. HuR and control siRNA sequences and transfection conditions were as described.
Mia.HuR, Mia.EV, Hs766t.HUR, Hs766t, and PL5.HuR, PL5.EV cells were seeded (1000 cells/well) in 96-well plates and treated with Etoposide, 5-Fluorouracil, Cis-platin, Staurosporine, Nocodazole, Colcemid, Ara-C (Sigma), and GEM (Gemzar, Eli-Lilly, Indianapolis, Ind.) for 6-7 days. After treatment, cells were washed with PBS and lysed with 100 μL of water/well; cell viability was quantified by staining of double-stranded DNA with QuantiT™ PicoGreen (Invitrogen) and analyzed with a TECAN SpectraFluor.

[2] = tested on: Mia.EV and Mia.HuR cell lines; test: Cell cycle analysis and apoptosis assay (flow cytometry); format: cell-based; settings: 0.03 μM GEM, 48 h
Method: Mia.EV and Mia.HuR cell lines were either left untreated or treated with 0.03 μM GEM for 48 h. For cell cycle analysis, cells were then fixed in 100% ethanol, and stained with a propidium iodide solution containing RNAse A (Sigma Aldrich). For apoptosis assays, cells were resuspended at 10^6 cells/mL and incubated in Annexin V and Propidium Iodide, following the manufacturers' protocol (FITC Annexin V, BD Pharmigen). Both assays were analyzed by flow cytometry.

HuR in MiaPaCa2 cells = test: HuR levels and localization by immunoblot and immunofluorescence; format: cell-based; settings: parental MiaPaCa2 cells, GEM treatment
Method: Cells were plated on LabTek II™ Chamber slides (Fisher Scientific) and fixed in 3% paraformaldehyde (20 min, RT). Cells were washed with PBS and permeabilized using 0.5% Triton X-100/1% normal goat serum (Vector Laboratories) in PBS (15 min). After washes in 1% goat serum/PBS, cells were incubated (1:50 dilution, 1 hr, RT) with mouse anti-HuR (Santa Cruz) or anti-deoxycytidine kinase (dCK, Abnova) primary antibodies. After washes in PBS, cells were incubated for 1 hr with goat anti-mouse secondary antibody (1:400, Alexa Fluor 647, Molecular Probes). Nuclei were stained with DAPI and cells were evaluated under a Zeiss LSM-510 Confocal Laser Microscope.
Whole-cell, cytoplasmic, and nuclear lysates were prepared as described (Kuwano Y, et al. Mol Cell Biol 2008; 28:4562-75), and protein was size-fractionated by SDS-PAGE (10% acrylamide). Membranes were blocked for 1 h in 5% Milk/TBS-T and incubated overnight with monoclonal antibodies (Santa Cruz) recognizing HuR, dCK, the cytoplasmic marker α-Tubulin, or the nuclear marker hnRNP. Membranes were washed with TBS-T and incubated with secondary antibodies; and the resulting signals were visualized by chemiluminescence (Millipore). Total protein was visualized with Fast Green (USB).

[3] = tested on: pancreatic ductal adenocarcinoma; test: Overall survival of resected PDA patients receiving GEM, stratified by cytoplasmic HuR; format: in vivo; settings: for adjusted hazard ratio of low to high HuR: adjusted for age, sex, Xeloda use and radiation therapy
Method: HuR immunostaining was performed on 32 resected PDA specimens from the Thomas Jefferson University pathology archives after IRB approval. All patients received GEM, alone or in combination with XELODA® (Capecitabine) (2 patients), radiation therapy (8 patients) or both (2 patients). The experienced pancreatic pathologist (A.K.W.) reviewed all cases in a blinded fashion and classified the tumors as well differentiated (n=6), moderately differentiated (n=22), or poorly differentiated […]. For each case, representative sections were selected for immunohistochemical analysis of HuR cytoplasmic and nuclear staining patterns, which were scored using the following scale: 0 for no staining, 1 for weak and/or focal (<10% of the cells) staining; 2 for moderate or strong, staining (10-50% of the cells); and 3 for moderate or strong staining (>50% of the cells). Combined scores 0 and 1 represented low expression, while combined scores 2 and 3 represented high expression.

[4] = tested on: HuR association with dCK mRNA in MiaPaCa2 cells; test: RNP IP assay of HuR association with dCK mRNA; dCK protein and mRNA levels; format: cell-based; settings: GEM treatment
Method: MiaPaCa2 cells were treated with 4 μM GEM and collected 48 hours later. For biotin pulldown analysis (Kuwano Y, et al. Mol Cell Biol 2008; […]), cytoplasmic extracts were isolated using, the NE-PER® Nuclear and Cytoplasmic Extraction Reagents Kit (Pierce Biotechnology) Probes for biotin pull-down analysis were synthesized as described (Kuwano Y, et al. Mol Cell Biol 2008; […] using the following PCR primers (sense and antisense, respectively) containing the T7 RNA polymerase promoter sequence […] (T7) (SEQ ID NO: 1): (T7)[…] (SEQ ID NO: 2) and […] (SEQ ID NO: 3) for dCK 3′UTR; (T7)[…] (SEQ ID NO: 4) and […] (SEQ ID NO: 5) for GAPD 3′UTR (Casolaro V, et al. J Allergy Clin Immunol 2008; 121:853-9 e4) (see supplemental figure for depiction of UTR positions). Biotinylated probes were synthesized using the MAXIscript T7 kit (Ambion) and Biotinylated dCTP (Enzo Life Sciences). For immunoprecipitation of endogenous RNA-protein complexes (RNP IP) from cytoplasmic (450 μg) extracts, reactions were carried out as described (Kuwano Y, et al. Mol Cell Biol 2008; 28:4562-75), using protein A Sepharose beads (Sigma) that were precoated with 30 μg of either mouse immunoglobulin G1 (IgG1; BD Biosciences), or anti-HuR antibodies. […] GAPDH and dCK transcripts were quantified by real-time PCR analysis using each specific primers: […] […]

[5] = patients receiving GEM, listed as gemcitabine

Compound | sensitivity of HuR-overexpressing cell lines compared with control lines [1] | sensitivity of HuR-overexpressing cell lines compared with control lines ([1]; listed as gemcitabine) | apoptosis of HuR overexpressing cells compared to control cells [2] | cell cycle distribution of HuR overexpressing cells compared to control cells [2] | cytoplasmic HuR levels (HuR in MiaPaCa2 cells) | whole-cell HuR levels (HuR in MiaPaCa2 cells) | hazard ratio of low to high HuR, univariate Cox regression ([3]; patients receiving GEM) | adjusted hazard ratio of low to high HuR ([3]; patients receiving GEM) | adjusted hazard ratio of low to high HuR [3, 5] | hazard ratio of low to high HuR, univariate Cox regression [3, 5] | increase in risk of death, low vs high HuR levels [3, 5] [fold] | median overall survival time for patients on GEM ([3]; resected PDA patients, GEM alone or combined) [days] | overall dCK protein or mRNA levels [4] | HuR's association with dCK mRNA ([4]; RNP IP)
Nc1ccn([C@@H]2O[C@H](CO)[C@@H](O)[C@@H]2O)c(=O)n1 [Ara-C, Cytarabine] | selectively more sensitive; also recorded: hypersensitive | – | – | – | – | – | – | – | – | – | – | – | – | –
Nc1ccn(C2OC(CO)C(O)C2(F)F)c(=O)n1 (stereo not drawn) [GEM, 4-amino-1-[3,3-difluoro-4-hydroxy-5-(hydroxymethyl)tetrahydrofuran-2-yl]-1H-pyrimidin-2-one] | more sensitive | strikingly hypersensitive | increased apoptosis | selective enrichment in the S-phase | significantly increased | did not alter | 4.48 | 7.34 | 5.04 | 3.36 | 5 | 619 | did not alter | significantly increased
